Measured values from patent publication US20200178534A1, “INDUCTION OF FLORAL DEVELOPMENT IN PLANTS” (priority 2016, published 2020).

What was measured:
[1] = system: Arabidopsis thaliana, ecotype Columbia (Col-0) and attps7 knockout mutants; test: Appearance of flower buds / flowering time after spraying T6P signalling precursor; format: in vivo; set-up: key to flower bud had appeared (individual plant N): X: shown as crosses in highlighted boxes; settings: for flower bud had appeared (individual plant N): 1 mM spray, day 5 after spraying
Protocol: In both cases it is possible to advance the development of the flowering inflorescence by several centimetres and advance flowering time by up to a week.
(§1) Seeds of Arabidopsis thaliana, ecotype Columbia (Col-0) and attps7 knockout mutants were surface-sterilized with 70% of ethanol for 2 min and 75% household bleach for 7 min, and grown on nutrient agar media (0.5×Murashige and Skoog plus Gamborg's vitamins (Sigma). 0.5% Sucrose and 0.7% Agar) in Petri plates. Seeds on the Petri plates were placed in a growth chamber (22° C., 150 μmol m^−2 s^−1, 16-h day). Seven days after plating, seedlings were transferred to pots of soil containing Rothamsted standard compost mix and full nutrition (one seedling per pot). Forty plants per A. thaliana type (n=40 Col-0, n=40 TPS7_3, n=40 TPS7_4.15) were grown at 22CC, 250 μmol m^−2 s^−1 irradiance, 16-h day. Eight days after sowing (DAS) plants were sprayed with 0.5 ml 1 mM oNPE-T6P (ortho-nitrphenyl)ethyl trehalose 6-phosphate dissolved in distilled water with the addition of 0.1% of Tween20 during the middle of the mid-photoperiod. Twenty-four hours after spraying (9 DAS), plants sprayed with 1 mM oNPE-T6P were exposed to 600 μmol m^−2 s^−1 irradiance for 1 h to release T6P from oNPE-T6P. Spraying was repeated at 12 and 16 DAS.
First, the appearance of the flower bud was quicker in plants sprayed with oNPE-T6P than with water.

[2] = system: Arabidopsis thaliana, ecotype Columbia (Col-0) and attps7 knockout mutants; test: Height of the flowering inflorescence at 26 DAS after spraying T6P signalling precursor; format: in vivo; settings: versus water control
Protocol: Right hand bars in each panel represent plants treated with 1 mM oNPE. Left hand bars in each panel represent plants treated with water (controls). […] This reflects the advancement of flowering by oNPE.
as §1
Height of the flowering inflorescence was then measured at 26 DAS. […]

CC(OP(=O)(OC[C@H]1O[C@H](O[C@H]2O[C@H](CO)[C@@H](O)[C@H](O)[C@H]2O)[C@H](O)[C@@H](O)[C@@H]1O)OC(C)c1ccccc1[N+](=O)[O-])c1ccccc1[N+](=O)[O-] (stereo partly drawn) [oNPE-T6P, 6-O-bis[1-(2-nitrophenyl)-ethoxyphosphoryl]-D-trehalose]
flower bud had appeared (individual plant N) ([1]; Col-0): X | flower bud had appeared (individual plant N) ([1]; TPS7_3 mutant): X | flower bud had appeared (individual plant N) ([1]; TPS7_4.15 mutant): X | appearance of the flower bud compared with water ([1]; plants sprayed with 1 mM, versus water): quicker | height of the flowering inflorescence ([2]; Col-0, 1 mM): taller inflorescences | height of the flowering inflorescence ([2]; tps7, 1 mM): taller inflorescences
